ChEMBL document CHEMBL1909046, “DrugMatrix in vitro pharmacology data”

Columns and labels:
[1] = DRUGMATRIX: Atrial Natriuretic Factor (ANF) radioligand binding (ligand: [125I] ANF (rat)); assay type: cell membranes, Cavia porcellus, Dunkin-Hartley, Adrenal gland, Membrane; conditions: Not Active = under 50% inhibition at 10 µM
[2] = biological target: C-C chemokine receptor type 5 (Homo sapiens, UniProt P51681); assay type: cell membranes, Membrane; conditions: hek293; also: in other assays of this panel Not Active means under 50% inhibition at 10 µM
[3] = biological target: T1, Nitric oxide synthase, inducible (Mus musculus, UniProt P29477); set-up: species or system Escherichia coli;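 also: inhibition of iNOS enzyme activity measured with L-arginine as substrate; in other assays of this panel Not Active means under 50% inhibition at 10 µM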
T1 sequence (P29477 whole entry): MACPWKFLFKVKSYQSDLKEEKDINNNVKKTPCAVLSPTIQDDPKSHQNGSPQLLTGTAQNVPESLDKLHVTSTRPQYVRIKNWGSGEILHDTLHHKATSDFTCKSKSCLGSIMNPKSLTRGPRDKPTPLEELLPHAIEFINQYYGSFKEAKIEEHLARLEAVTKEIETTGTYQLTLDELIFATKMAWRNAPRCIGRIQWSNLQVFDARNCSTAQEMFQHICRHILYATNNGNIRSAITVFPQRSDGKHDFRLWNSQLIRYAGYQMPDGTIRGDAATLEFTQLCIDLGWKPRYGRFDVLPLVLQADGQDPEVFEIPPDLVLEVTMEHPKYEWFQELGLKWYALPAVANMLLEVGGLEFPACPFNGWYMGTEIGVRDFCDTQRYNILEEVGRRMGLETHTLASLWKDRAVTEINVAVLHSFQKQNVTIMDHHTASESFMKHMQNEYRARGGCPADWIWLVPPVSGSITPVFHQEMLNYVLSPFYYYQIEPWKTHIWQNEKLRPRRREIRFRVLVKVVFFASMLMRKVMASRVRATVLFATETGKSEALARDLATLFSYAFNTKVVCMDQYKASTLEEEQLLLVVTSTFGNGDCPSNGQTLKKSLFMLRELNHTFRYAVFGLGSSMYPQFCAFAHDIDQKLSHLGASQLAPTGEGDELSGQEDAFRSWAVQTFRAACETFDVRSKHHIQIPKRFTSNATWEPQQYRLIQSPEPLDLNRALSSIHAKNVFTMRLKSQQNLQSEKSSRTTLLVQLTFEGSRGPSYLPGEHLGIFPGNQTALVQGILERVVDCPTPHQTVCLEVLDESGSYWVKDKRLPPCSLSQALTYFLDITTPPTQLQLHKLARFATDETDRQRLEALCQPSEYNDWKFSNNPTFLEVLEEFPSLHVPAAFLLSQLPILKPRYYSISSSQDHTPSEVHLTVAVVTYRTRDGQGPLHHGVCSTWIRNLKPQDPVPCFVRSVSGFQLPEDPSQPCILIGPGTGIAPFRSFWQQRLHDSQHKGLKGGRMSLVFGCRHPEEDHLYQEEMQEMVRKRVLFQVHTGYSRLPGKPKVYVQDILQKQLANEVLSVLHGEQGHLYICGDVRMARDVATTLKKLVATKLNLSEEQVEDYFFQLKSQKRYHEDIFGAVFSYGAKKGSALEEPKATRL

D(3) dopamine receptor = D(3) dopamine receptor (Homo sapiens, UniProt P35462); assay: DRUGMATRIX: Dopamine D3 radioligand binding (ligand: [3H] Spiperone); assay type: cell membranes, CHO, Membrane; conditions: cho
[4] = biological target: 5-hydroxytryptamine receptor 6 (Homo sapiens, UniProt P50406); assay type: cell membranes, HeLa, Membrane; conditions: hela; also: in other assays of this panel Not Active means under 50% inhibition at 10 µM
Acetylcholinesterase = Acetylcholinesterase (Homo sapiens, UniProt P22303); assay: DRUGMATRIX: Acetylcholinesterase enzyme inhibition (substrate: acetylthiocholine); assay type: cell-based, HEK293; conditions: hek293; Not Active = under 50% inhibition at 10 µM
[5] = biological target: Vascular endothelial growth factor receptor 1 (Homo sapiens, UniProt P17948); assay type: cell-based; conditions: huvec; also: in other assays of this panel Not Active means under 50% inhibition at 10 µM
[6] = biological target: Sigma non-opioid intracellular receptor 1 (Homo sapiens, UniProt Q99720); assay: DRUGMATRIX: Sigma1 radioligand binding (ligand: [3H] Haloperidol); assay type: cell membranes, Jurkat, Membrane; conditions: jurkat; Not Active = under 50% inhibition at 10 µM
[7] = biological target: T2, 3-hydroxy-3-methylglutaryl-coenzyme A reductase (Homo sapiens, UniProt P04035); set-up: species or system Escherichia coli
T2 sequence (P04035 whole entry): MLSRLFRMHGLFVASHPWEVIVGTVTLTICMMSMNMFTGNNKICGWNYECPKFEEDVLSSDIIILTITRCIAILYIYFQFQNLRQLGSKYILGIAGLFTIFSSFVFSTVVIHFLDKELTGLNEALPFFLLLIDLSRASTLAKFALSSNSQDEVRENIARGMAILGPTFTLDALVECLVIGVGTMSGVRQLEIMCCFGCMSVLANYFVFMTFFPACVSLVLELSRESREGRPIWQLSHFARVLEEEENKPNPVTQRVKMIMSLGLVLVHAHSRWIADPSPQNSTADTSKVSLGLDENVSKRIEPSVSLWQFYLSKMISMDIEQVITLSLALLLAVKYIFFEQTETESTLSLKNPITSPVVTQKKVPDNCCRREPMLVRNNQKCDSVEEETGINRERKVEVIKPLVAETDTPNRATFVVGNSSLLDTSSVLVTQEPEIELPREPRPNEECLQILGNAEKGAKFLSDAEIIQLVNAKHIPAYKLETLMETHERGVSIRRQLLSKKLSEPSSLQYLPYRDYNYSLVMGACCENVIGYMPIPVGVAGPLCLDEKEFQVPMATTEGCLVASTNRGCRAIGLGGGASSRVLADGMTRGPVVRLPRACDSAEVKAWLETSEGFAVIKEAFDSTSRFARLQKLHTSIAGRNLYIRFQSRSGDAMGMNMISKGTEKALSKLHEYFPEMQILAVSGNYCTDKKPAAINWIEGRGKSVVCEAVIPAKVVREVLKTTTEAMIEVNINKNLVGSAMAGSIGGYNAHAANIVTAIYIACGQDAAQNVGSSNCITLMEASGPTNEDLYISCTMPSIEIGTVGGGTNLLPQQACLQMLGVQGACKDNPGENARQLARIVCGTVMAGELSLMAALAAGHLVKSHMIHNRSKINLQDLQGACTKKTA

Leukotriene C4 synthase = biological target: T3, Leukotriene C4 synthase (Cavia porcellus, UniProt A6XA80); assay: biochemical; assay type: tissue-based, Lung
T3 sequence (A6XA80 whole entry): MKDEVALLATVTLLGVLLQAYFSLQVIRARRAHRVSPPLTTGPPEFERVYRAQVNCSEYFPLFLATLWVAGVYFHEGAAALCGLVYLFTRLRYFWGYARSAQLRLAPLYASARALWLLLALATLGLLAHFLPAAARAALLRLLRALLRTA

Sequence of Vascular endothelial growth factor receptor 1 (P17948 whole entry): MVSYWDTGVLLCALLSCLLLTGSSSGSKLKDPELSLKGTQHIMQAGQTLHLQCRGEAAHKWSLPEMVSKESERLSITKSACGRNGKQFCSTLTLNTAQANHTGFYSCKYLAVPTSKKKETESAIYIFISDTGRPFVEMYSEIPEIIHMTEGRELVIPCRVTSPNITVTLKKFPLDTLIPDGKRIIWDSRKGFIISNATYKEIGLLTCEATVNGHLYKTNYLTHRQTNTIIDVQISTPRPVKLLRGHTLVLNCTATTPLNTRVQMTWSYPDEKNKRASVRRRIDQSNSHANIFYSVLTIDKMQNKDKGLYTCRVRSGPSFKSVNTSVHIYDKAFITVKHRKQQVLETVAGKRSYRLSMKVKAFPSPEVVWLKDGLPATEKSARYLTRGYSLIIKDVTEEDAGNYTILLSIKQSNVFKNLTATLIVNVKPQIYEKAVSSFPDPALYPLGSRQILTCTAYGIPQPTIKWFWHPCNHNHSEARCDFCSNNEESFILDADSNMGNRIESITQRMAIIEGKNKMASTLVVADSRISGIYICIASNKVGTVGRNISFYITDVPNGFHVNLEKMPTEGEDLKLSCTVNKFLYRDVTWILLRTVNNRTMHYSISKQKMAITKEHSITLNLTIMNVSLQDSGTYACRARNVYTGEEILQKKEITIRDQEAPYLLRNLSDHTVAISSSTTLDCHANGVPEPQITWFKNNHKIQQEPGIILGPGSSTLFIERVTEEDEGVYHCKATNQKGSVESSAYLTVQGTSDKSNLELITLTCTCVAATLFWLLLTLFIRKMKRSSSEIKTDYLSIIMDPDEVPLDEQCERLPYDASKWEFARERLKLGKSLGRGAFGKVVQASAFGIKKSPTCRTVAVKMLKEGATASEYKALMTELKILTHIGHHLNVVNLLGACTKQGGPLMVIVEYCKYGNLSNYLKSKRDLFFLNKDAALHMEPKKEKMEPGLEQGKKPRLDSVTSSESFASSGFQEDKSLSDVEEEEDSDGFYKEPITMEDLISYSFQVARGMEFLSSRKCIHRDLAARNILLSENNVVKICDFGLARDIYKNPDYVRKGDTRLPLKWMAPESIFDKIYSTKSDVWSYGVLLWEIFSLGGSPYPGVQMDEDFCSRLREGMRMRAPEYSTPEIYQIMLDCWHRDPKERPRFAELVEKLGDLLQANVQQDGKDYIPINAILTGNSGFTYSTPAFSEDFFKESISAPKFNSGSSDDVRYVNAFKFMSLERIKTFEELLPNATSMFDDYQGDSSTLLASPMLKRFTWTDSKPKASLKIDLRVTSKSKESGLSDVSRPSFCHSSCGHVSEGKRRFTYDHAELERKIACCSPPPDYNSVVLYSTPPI
Sequence of 5-hydroxytryptamine receptor 6 (P50406 whole entry): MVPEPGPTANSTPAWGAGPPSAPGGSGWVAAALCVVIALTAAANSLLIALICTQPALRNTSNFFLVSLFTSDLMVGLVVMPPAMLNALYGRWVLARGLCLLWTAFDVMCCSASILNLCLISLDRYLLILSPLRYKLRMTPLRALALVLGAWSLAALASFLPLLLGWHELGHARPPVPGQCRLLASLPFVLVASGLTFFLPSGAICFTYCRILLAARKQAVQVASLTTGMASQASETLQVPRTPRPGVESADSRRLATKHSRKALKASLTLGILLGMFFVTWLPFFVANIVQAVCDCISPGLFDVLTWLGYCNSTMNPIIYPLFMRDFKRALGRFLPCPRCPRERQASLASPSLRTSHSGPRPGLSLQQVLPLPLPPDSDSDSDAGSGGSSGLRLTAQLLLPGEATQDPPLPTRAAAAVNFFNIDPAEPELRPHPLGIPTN
Sequence of D(3) dopamine receptor (P35462 whole entry): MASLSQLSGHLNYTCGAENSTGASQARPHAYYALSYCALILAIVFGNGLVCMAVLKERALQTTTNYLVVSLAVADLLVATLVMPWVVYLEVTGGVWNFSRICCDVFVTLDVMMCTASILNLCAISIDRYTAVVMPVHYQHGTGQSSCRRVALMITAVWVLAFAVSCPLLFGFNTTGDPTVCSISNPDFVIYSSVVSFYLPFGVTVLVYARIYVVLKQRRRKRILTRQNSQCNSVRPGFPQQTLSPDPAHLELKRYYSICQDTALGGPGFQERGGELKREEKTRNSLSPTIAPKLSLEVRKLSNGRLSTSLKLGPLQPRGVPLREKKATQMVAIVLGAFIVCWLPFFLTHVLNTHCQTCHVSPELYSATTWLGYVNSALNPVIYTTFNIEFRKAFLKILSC
Sequence of C-C chemokine receptor type 5 (P51681 whole entry): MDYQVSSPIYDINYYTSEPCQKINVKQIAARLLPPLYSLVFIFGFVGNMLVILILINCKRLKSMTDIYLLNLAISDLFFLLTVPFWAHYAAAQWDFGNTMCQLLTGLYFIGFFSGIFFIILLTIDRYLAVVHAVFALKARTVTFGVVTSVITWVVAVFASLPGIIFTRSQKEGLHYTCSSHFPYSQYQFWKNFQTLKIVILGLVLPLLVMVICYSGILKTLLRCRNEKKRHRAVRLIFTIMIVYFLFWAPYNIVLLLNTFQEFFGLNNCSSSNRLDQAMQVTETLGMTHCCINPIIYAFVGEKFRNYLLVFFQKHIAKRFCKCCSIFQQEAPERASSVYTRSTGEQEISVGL
Sequence of Sigma non-opioid intracellular receptor 1 (Q99720 whole entry): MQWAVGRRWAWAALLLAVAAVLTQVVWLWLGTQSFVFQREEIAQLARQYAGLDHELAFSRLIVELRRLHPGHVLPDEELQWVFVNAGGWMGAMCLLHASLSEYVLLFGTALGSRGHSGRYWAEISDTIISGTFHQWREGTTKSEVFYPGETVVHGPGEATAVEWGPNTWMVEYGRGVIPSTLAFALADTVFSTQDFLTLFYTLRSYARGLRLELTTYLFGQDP
Sequence of Acetylcholinesterase (P22303 whole entry): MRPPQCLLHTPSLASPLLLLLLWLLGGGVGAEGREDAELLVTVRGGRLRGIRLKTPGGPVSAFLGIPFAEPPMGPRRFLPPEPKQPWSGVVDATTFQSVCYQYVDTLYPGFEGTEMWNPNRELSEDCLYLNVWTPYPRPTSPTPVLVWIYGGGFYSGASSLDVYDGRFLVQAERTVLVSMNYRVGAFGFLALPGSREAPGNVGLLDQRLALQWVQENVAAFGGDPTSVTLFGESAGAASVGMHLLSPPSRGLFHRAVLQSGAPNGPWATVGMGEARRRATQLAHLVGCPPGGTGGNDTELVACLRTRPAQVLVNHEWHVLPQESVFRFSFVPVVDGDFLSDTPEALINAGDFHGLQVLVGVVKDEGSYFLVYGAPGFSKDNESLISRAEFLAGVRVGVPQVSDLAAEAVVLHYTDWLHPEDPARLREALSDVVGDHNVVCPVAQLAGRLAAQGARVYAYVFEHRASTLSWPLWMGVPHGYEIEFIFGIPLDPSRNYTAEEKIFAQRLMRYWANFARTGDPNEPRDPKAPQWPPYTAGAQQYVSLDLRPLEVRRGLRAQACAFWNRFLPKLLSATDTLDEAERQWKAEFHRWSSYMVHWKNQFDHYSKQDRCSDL

CN[C@H](CC(C)C)C(=O)N[C@H]1C(=O)N[C@@H](CC(N)=O)C(=O)N[C@H]2C(=O)N[C@H]3C(=O)N[C@H](C(=O)N[C@H](C(=O)O)c4cc(O)cc(O)c4-c4cc3ccc4O)[C@H](O)c3ccc(c(Cl)c3)Oc3cc2cc(c3O[C@@H]2O[C@H](CO)[C@@H](O)[C@H](O)[C@H]2O[C@H]2C[C@](C)(N)[C@H](O)[C@H](C)O2)Oc2ccc(cc2Cl)[C@H]1O [VANCOMYCIN]
Not Active: IC50 [1] | Ki [1] | IC50 [2] | IC50 [3] | IC50 (D(3) dopamine receptor) | IC50 [4] | IC50 (Acetylcholinesterase) | IC50 [5] | IC50 [6] | IC50 [7] | IC50 (Leukotriene C4 synthase)

C[C@](N)(Cc1ccc(O)cc1)C(=O)O [METYROSINE]
Not Active: IC50 [1] | Ki [1] | IC50 [2] | IC50 [3] | IC50 (D(3) dopamine receptor) | IC50 [4] | IC50 (Acetylcholinesterase) | IC50 [5] | IC50 [6] | IC50 [7] | IC50 (Leukotriene C4 synthase)

CC(C)[C@H](N)C(=O)OCCOCn1cnc2c(=O)nc(N)[nH]c21 [VALACYCLOVIR]
Not Active: IC50 [1] | Ki [1] | IC50 [2] | IC50 [3] | IC50 (D(3) dopamine receptor) | IC50 [4] | IC50 (Acetylcholinesterase) | IC50 [5] | IC50 [6] | IC50 [7] | IC50 (Leukotriene C4 synthase)

Cc1cc(NS(=O)(=O)c2ccc(N)cc2)no1 [SULFAMETHOXAZOLE]
Not Active: IC50 [1] | Ki [1] | IC50 [2] | IC50 [3] | IC50 (D(3) dopamine receptor) | IC50 [4] | IC50 (Acetylcholinesterase) | IC50 [5] | IC50 [6] | IC50 [7] | IC50 (Leukotriene C4 synthase)

CC1=C(/C=C/C(C)=C/C=C/C(C)=C\C(=O)O)C(C)(C)CCC1 [ISOTRETINOIN]
Not Active: IC50 [1] | Ki [1] | IC50 [2] | IC50 [3] | IC50 (D(3) dopamine receptor) | IC50 [4] | IC50 (Acetylcholinesterase) | IC50 [5] | IC50 [6] | IC50 [7] | IC50 (Leukotriene C4 synthase)

C[C@]12Cc3c[nH]nc3C[C@@H]1CC[C@@H]1[C@@H]2CC[C@@]2(C)[C@H]1CC[C@]2(C)O [STANOZOLOL]
Not Active: IC50 [1] | Ki [1] | IC50 [2] | IC50 [3] | IC50 (D(3) dopamine receptor) | IC50 [4] | IC50 (Acetylcholinesterase) | IC50 [5] | IC50 [6] | IC50 [7] | IC50 (Leukotriene C4 synthase)

NCCCC[C@H](N[C@@H](CCc1ccccc1)C(=O)O)C(=O)N1CCC[C@H]1C(=O)O [LISINOPRIL ANHYDROUS]
Not Active: IC50 [1] | Ki [1] | IC50 [2] | IC50 [3] | IC50 (D(3) dopamine receptor) | IC50 [4] | IC50 (Acetylcholinesterase) | IC50 [5] | IC50 [6] | IC50 [7] | IC50 (Leukotriene C4 synthase)

CC(=O)S[C@@H]1CC2=CC(=O)CC[C@]2(C)[C@H]2CC[C@@]3(C)[C@@H](CC[C@@]34CCC(=O)O4)[C@H]12 [SPIRONOLACTONE]
Not Active: IC50 [1] | Ki [1] | IC50 [2] | IC50 [3] | IC50 (D(3) dopamine receptor) | IC50 [4] | IC50 (Acetylcholinesterase) | IC50 [5] | IC50 [6] | IC50 [7] | IC50 (Leukotriene C4 synthase)

CN(C)[C@@H]1C(O)=C(C(N)=O)C(=O)[C@@]2(O)C(O)=C3C(=O)c4c(O)cccc4[C@@](C)(O)[C@H]3C[C@@H]12 [TETRACYCLINE]
Not Active: IC50 [1] | Ki [1] | IC50 [2] | IC50 [3] | IC50 (D(3) dopamine receptor) | IC50 [4] | IC50 (Acetylcholinesterase) | IC50 [5] | IC50 [6] | IC50 [7] | IC50 (Leukotriene C4 synthase)

Nc1ccc(S(=O)(=O)Nc2ccnn2-c2ccccc2)cc1 [SULFAPHENAZOLE]
Not Active: IC50 [1] | Ki [1] | IC50 [2] | IC50 [3] | IC50 (D(3) dopamine receptor) | IC50 [4] | IC50 (Acetylcholinesterase) | IC50 [5] | IC50 [6] | IC50 [7] | IC50 (Leukotriene C4 synthase)

COc1c(C)c2c(c(O)c1C/C=C(\C)CCC(=O)OCCN1CCOCC1)C(=O)OC2 [MYCOPHENOLATE MOFETIL]
Not Active: IC50 [1] | Ki [1] | IC50 [2] | IC50 [3] | IC50 (D(3) dopamine receptor) | IC50 [4] | IC50 (Acetylcholinesterase) | IC50 [5] | IC50 [6] | IC50 [7] | IC50 (Leukotriene C4 synthase)

Nc1nnc(-c2cccc(Cl)c2Cl)c(N)n1 [LAMOTRIGINE]
Not Active: IC50 [1] | Ki [1] | IC50 [2] | IC50 [3] | IC50 (D(3) dopamine receptor) | IC50 [4] | IC50 (Acetylcholinesterase) | IC50 [5] | IC50 [6] | IC50 [7] | IC50 (Leukotriene C4 synthase)
